From US10632064B2, “Topical regional neuro affective therapy with cannabinoid combination products” (Afgin Pharma, LLC, priority 2015, dated 2020)
“Also recorded” adds a separate entry of the source.

Experiments:
Assay type in all cases: in vivo, human
[1] = test system: patients having acute and chronic neurological and psychiatric conditions; test: Example 12: topical CBD from crystalline powder (Table 6)
Protocol: In Example 12, 19 patients having acute and chronic neurological and psychiatric conditions were treated with topical CBD at the back of the neck. The treatment comprised a dose of either 15 mg or 30 mg cannabinoid drugs, with the majority being CBD, the source of the CBD being CBD crystalline powder oil commercially available from CannaVest.

[2] = test system: person, cerebellar posterior fossa cyst, generalized seizure; test: Example 13: 2% CBD cream to the nuchal region, absence seizures, EEG
Protocol: In Example 13, person suffering from a cerebellar posterior fossa cyst, generalized seizure manifesting as standing and staring and unresponsive was treating in accordance with the present invention. FIG. 2 is an EEG showing a baseline EEG of the patient of Example 13. […] Previously, ethosuximide had been recommended for treatment, but the parents were reluctant to have the patient on a systemic […] therapy in view of the potential side effects. The patient was treated with a 2% CBD cream to the nuchal (back of the neck) region twice a day. After two weeks, the dosage regimen was changed to one application per day.

[3] = test system: patient with atonic seizures; test: Example 17: 1 g of 1.6% CBD cream nuchal, atonic seizures, EEG
Protocol: In Example 17, a patient presented with atonic seizures. The patient would suddenly freeze and fall down (e.g., riding a bike, at school, etc.). FIG. 11 is a baseline EEG taken at the initial examination, showing cortical irritability on the left central region c/w potential for seizures.
The patient was treated with 1 g of 1.6% CBD cream to the nuchal (back of the neck). […] FIG. 13 is a brain MRI of the patient showing a left thalamic hamartoma, a benign developmental process, likely irritating the brain and causing their seizures.

C=C(C)[C@@H]1CCC(C)=C[C@H]1c1c(O)cc(CCCCC)cc1O [CBD, cannabidiol]
result in words (Table 6) ([1]; 0.75% topical CBD to neck and 1% to back): 1% to back with patient feeling more alert
time after application at which the effect was seen ([1]; 1% topical CBD to neck and back): ≤ 1 min
result in words (Table 6) ([1]; 1% topical CBD, one patient per entry): became more alert and spontaneous; also recorded: spasticity improved with better movement of; also recorded: improved pain within three minutes. Stated; also recorded: worked better than oil-based CBD they had; also recorded: focus, clearer thinking, and reduced anxiety
pain decrease ([1]; 1% topical CBD, single patients): 50% and pain 20% within a few minutes. and additional 30% from prior baseline.
result in words (Table 6) ([1]; 1.5% topical (powdered) CBD cream): 1.5% topical CBD reduced neck tension and relieved neuropathic pain. Had been using and relieved anxiety and improved demeanor.
result in words (Table 6) ([1]; 2% topical CBD cream): relieved back and lower extremity; also recorded: relieved neck pain and tension from
neck pain and tension level after treatment ([1]; 2% topical CBD cream to back of neck, from 8 of 10, in few minutes): 8 of 10 to 2 in few minutes.
clinical findings at the two week check-up ([2]; 2% CBD cream to nuchal region twice a day): No seizures were noted; also recorded: no long bed wetting; also recorded: reading levels had increased two levels
EEG post-treatment ([2]; 5 minutes after the start of therapy (FIG. 3)): attenuated seizure focus
EEG post-treatment ([2]; 8 minutes after the start of therapy (FIG. 4)): further attenuation of seizure focus
EEG after CBD dose ([3]; 10 minutes after application of 1 g of 1.6% CBD cream (FIG. 12)): attenuated seizure focus
seizure status on treatment ([3]; topical CBD nuchal since October 2015, only medication): seizure-free since initiating topical CBD therapy
